Data as given in ChEMBL document CHEMBL1201862, “PubChem BioAssay data set” (2004).
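Compound exposure: 48 hours, 5 concentrations, 96-well plates. GI50 = concentration required for 50% inhibition of growth.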 Active and inactive are the calls of the source. No stated cut-off is given here; in the data, active = GI50 up to about 1.1 µM and inactive = higher.

Experiments:
Assay in all cases: DTP human tumour cell line panel, 48 h
DLD-1 = system: DLD-1
HOP-18 = system: HOP-18
KM-20L2 = system: KM-20L2
M19-MEL = system: M19-MEL
SNB-78 = system: SNB-78
XF498 = system: XF498
BT-549 = system: BT-549
DMS-114 = system: DMS-114
RXF 631 = system: RXF 631

| Compound | GI50 (DLD-1) | GI50 (KM-20L2) | GI50 (M19-MEL) | GI50 (BT-549) | GI50 (DMS-114) | further results |
| --- | --- | --- | --- | --- | --- | --- |
| O=C(/C=C(\O)C(=O)O)/C=C(\O)c1ccccc1 | > 4.65 µM (inactive) | > 4.65 µM (inactive) | > 4.65 µM (inactive) |  |  | GI50 (HOP-18): 1 µM (active); GI50 (SNB-78): > 100 µM (inactive); GI50 (XF498): > 100 µM (inactive) |
| CC(C)(Cl)C(Cl)CC/C(CBr)=C(\Cl)CCl (stereo not drawn) |  |  |  | 1.84 µM (inactive) |  |  |
| CCOC(=O)CCCNC(=O)CCCCC(=O)N(C)C |  |  |  | > 100 µM (inactive) |  |  |
| CNc1ccc([N+](=O)[O-])c2c(NCCCN(C)C)ccnc12 |  | > 100 µM (inactive) | > 100 µM (inactive) |  | > 100 µM (inactive) | GI50 (SNB-78): 7.8 µM (inactive); GI50 (XF498): > 100 µM (inactive) |
| O=S(=O)(c1cc(Cl)ccc1Cl)N1CCN(c2ccc(Cl)c(Cl)c2)CC1 |  |  |  | 33.3 µM (inactive) |  |  |
| CC(C)C1(Cl)CCC2C3(C)CCCC(C)(C(=O)O)C3CC(Cl)C2(Cl)C1Cl (stereo not drawn) |  |  |  | 48.8 µM (inactive) |  |  |
| CC1(C)[C@@H]2C[C@H]1[C@@H](Cc1cccc(C[C@H]3c4cc(-c5ccccn5)ncc4[C@H]4C[C@@H]3C4(C)C)c1)c1cc(-c3ccccn3)ncc12 |  |  |  | > 100 µM (inactive) |  |  |
| COC(=O)C(C(=O)C(=O)Nc1ccc([N+](=O)[O-])cc1)c1nc2cc(C)c(C)cc2nc1O (stereo not drawn) | > 100 µM (inactive) | > 100 µM (inactive) | > 100 µM (inactive) |  | > 100 µM (inactive) | GI50 (HOP-18): > 100 µM (inactive); GI50 (SNB-78): > 100 µM (inactive); GI50 (XF498): > 100 µM (inactive) |
| C#CCNC(CCCNC(=N)N)C(=O)O (stereo not drawn) |  |  |  | > 100 µM (inactive) |  |  |
| CC[n+]1c(/C=C/c2ccc(N(CCCl)CCCl)cc2)ccc2cc(NC(=O)/C=C/c3ccccc3)ccc21 | 0.628 µM (active) | 0.483 µM (active) | 0.439 µM (active) | 0.628 µM (active) | 0.52 µM (active) | GI50 (HOP-18): 2.62 µM (inactive); GI50 (SNB-78): 1.51 µM (inactive); GI50 (XF498): 0.205 µM (active) |
| O=c1oc2ccc3ccccc3c2cc1-c1nc2ccccc2s1 |  |  |  | > 100 µM (inactive) |  |  |
| Cc1cccc(C)c1NC(=S)NC=C(C(N)=O)C(N)=O |  |  |  | > 100 µM (inactive) |  |  |
| CC1=NN(c2cccc(Cl)c2)C2(SCC(=O)N2c2nc3ccccc3s2)/C1=C\c1cccs1 (stereo not drawn) |  |  |  | 17.6 µM (inactive) |  |  |
| COc1ccc(C2SC(=N)Nc3c2c(C)nn3C(=O)c2ccccc2O)cc1OC (stereo not drawn) |  |  |  | 8.91 µM (inactive) |  |  |
| CC[C@]1(Cc2ccc(OC)c(OC)c2)C=[N+]([O-])O[C@H](OC2CCCC2(c2ccccc2)c2ccccc2)[C@@H]1OC(=O)C(C)(C)C (stereo partly drawn) |  |  |  | 4.38 µM (inactive) |  |  |
| Cc1ccc(S(=O)(=O)NC(=O)NNc2ccc(F)cc2)cc1 |  |  |  | > 31.6 µM (inactive) |  |  |
| O=C(O)C1CCCN1Cc1cc2ccccc2c2ccccc12 (stereo not drawn) |  |  |  | > 100 µM (inactive) |  |  |

| Compound | GI50 (DLD-1) | GI50 (KM-20L2) | GI50 (M19-MEL) | GI50 (BT-549) | GI50 (DMS-114) | further results |
| --- | --- | --- | --- | --- | --- | --- |
| COC(=O)C1=C(c2ccc3c(c2)OCO3)OC(c2cc(OC)c(OC)c(OC)c2)C1 (stereo not drawn) | 3.58 µM (inactive) | 1.57 µM (inactive) | 4.86 µM (inactive) |  | 2.49 µM (inactive) | GI50 (HOP-18): 16.3 µM (inactive); GI50 (SNB-78): 10.4 µM (inactive); GI50 (XF498): 14.5 µM (inactive) |
| COc1cccc(-c2nc(-c3cnccn3)n(C/C=C/c3ccccc3)n2)c1 |  |  |  | > 10 µM (inactive) |  |  |
| c1ccc(C2N3CCCCC3[C@@H]3c4[nH]c5ccccc5c4CCN23)nc1 (stereo partly drawn) | > 100 µM (inactive) | > 100 µM (inactive) | > 100 µM (inactive) |  | 27.4 µM (inactive) | GI50 (HOP-18): > 100 µM (inactive); GI50 (RXF 631): > 100 µM (inactive); GI50 (SNB-78): 49.7 µM (inactive) |
| O=c1c2cc([N+](=O)[O-])ccc2oc2nc3n(c(=O)c12)CCCS3 |  |  |  | > 100 µM (inactive) |  |  |
| Cc1nn(C)c(=O)c2nn(-c3ccccc3)c(C)c12 | > 100 µM (inactive) | > 100 µM (inactive) | > 100 µM (inactive) |  | > 100 µM (inactive) | GI50 (HOP-18): > 100 µM (inactive); GI50 (SNB-78): > 100 µM (inactive) |
| O=[N+]([O-])c1cccc(C(O)/C(=N/Nc2ccccc2)C2Nc3ccc([N+](=O)[O-])cc3N=C2O)c1 (stereo not drawn) | > 100 µM (inactive) | 23.1 µM (inactive) | 45.4 µM (inactive) |  | 24.9 µM (inactive) | GI50 (RXF 631): > 100 µM (inactive); GI50 (SNB-78): > 100 µM (inactive); GI50 (XF498): > 100 µM (inactive) |
| COC(=O)C1C(C(=O)OC)C2(OC(c3ccc(Cl)cc3)=CC2=O)C12OC(c1ccc(Cl)cc1)=CC2=O (stereo not drawn) |  |  |  | 16.4 µM (inactive) |  |  |
| Nc1nc(Cl)c(CO)c(NCC2(CO)CC(CCc3ccccc3)C2)n1 (stereo not drawn) |  |  |  | 15.4 µM (inactive) |  |  |
| CCOC(=O)[C@@]12C(C)=CC(=O)O[C@]1(C)C1C(=O)NC(=O)C12 (stereo partly drawn) | > 100 µM (inactive) | > 100 µM (inactive) |  |  | > 100 µM (inactive) | GI50 (HOP-18): 31.4 µM (inactive); GI50 (RXF 631): > 100 µM (inactive); GI50 (SNB-78): > 100 µM (inactive) |
| O=[N+]([O-])c1ccc(C2=Nc3ccccc3[S+]([O-])C(c3ccccc3)C2)cc1 (stereo not drawn) | 18.6 µM (inactive) | 23.7 µM (inactive) | 14.6 µM (inactive) |  | 19.1 µM (inactive) | GI50 (HOP-18): 24.9 µM (inactive); GI50 (RXF 631): 17.1 µM (inactive); GI50 (XF498): 21.4 µM (inactive) |
| CC(C)c1cccc(C(C)C)c1NC(=O)/C(CC(=O)CC(c1ccccc1)c1c(O)c2ccccc2oc1=O)=N/O (stereo not drawn) |  |  |  | > 100 µM (inactive) |  |  |
| Cc1c2cccc-2c2cc(O)c3ccccc3c2n1-c1ccc(N(C)C)cc1 |  |  |  | 10.7 µM (inactive) |  |  |
| [N-]=[N+]=NC1C2CC3C4CC5CC3[C@H](C2)C(C5)C41 (stereo partly drawn) | > 100 µM (inactive) |  | > 100 µM (inactive) |  | > 100 µM (inactive) | GI50 (HOP-18): 17.1 µM (inactive); GI50 (XF498): > 100 µM (inactive) |
| CC(=O)OC1CC2C(=O)C(=O)C1(C)C2(C)C (stereo not drawn) |  |  |  | > 100 µM (inactive) |  |  |
| CC(=O)CC(=O)Nn1c(-c2cccs2)nc2ccc(I)cc2c1=O |  |  |  | > 35.9 µM (inactive) |  |  |
| CC(=O)O[C@H]1C(=O)[C@@]2(C)[C@H]([C@H](OC(=O)c3ccccc3)[C@]3(O)C[C@H](OC(=O)[C@H](O)[C@@H](NC(=O)C(C)(C)C)c4ccccc4)C(C)=C1C3(C)C)[C@]1(OC(C)=O)CO[C@@H]1C[C@@H]2O |  |  |  | 0.342 µM (active) |  |  |
